Counter-ions that a name gives are not always drawn.
Tests used:
[1] = test system: testosterone and phenylephrine induced benign prostate hyperplasia; experiment: testosterone and phenylephrine induced benign prostate hyperplasia in rats (Example 1); type: in vivo, Male Wistar rats; details: for epithelial hyperplasia score, representative image of dorsolateral prostate: FIG. 2; for mean dorsolateral prostate hyperplasia scores compared to vehicle treatment: induced rats, intra-prostate days 15 and 29, axitinib, sorafenib, FIG. 3; for mean prostate weight (prostate weight/100 g body weight): day 42, FIG. 1
Procedure: Wistar and Sprague-Dawley strains of rats are susceptible to developing benign prostatic hyperplasia after treatment with exogenous testosterone and can serve as a model of hyperplasia induced by endogenous hormones, i.e., BPH in males and uterine fibroids (UF) in females. A study was conducted to determine the effects of test compounds and vehicle on testosterone and phenylephrine induced benign prostate hyperplasia in rats. Male Wistar rats were induced with testosterone (2 mg/kg) plus phenylephrine (5 mg/kg) administered daily by subcutaneous injection on days 1 through 28. Vehicle or the multikinase test compounds, axitinib (1%), sorafenib (1%), pirfenidone (2.5%) and riociguat (1%), were administered by intra-prostate injection (0.2 mL) on days 15 and 29. Animals were euthanized on day 42. Body weights were determined. Prostate glands were harvested and weighed.
Prostate weight/100 g body weight was determined for each treatment group (FIG. 1). […] Rather, only multikinase inhibitors with a certain inhibitory spectrum would work.
At necropsy, the dorsolateral and ventral lobes of the prostate were separated and cut into halves. The left halves were fixed in 10% neutral buffered formalin, sectioned, and stained with Hematoxylin and Eosin (H&E). Glandular hyperplasia was recognized as an increase in epithelial cells within normal appearing gland profiles, reflected by stratification of epithelial cells and increased presence of epithelial tufting and papillary projections (FIG. 2). Stromal changes were examined microscopically. These changes included inflammation and tissue fibroplasia. Each section was given a severity score ranging from 0 (not present) through 5 (severe).

[2] = test system: full-thickness dermal wounds; experiment: full-thickness dermal wounds in rabbit ear, histopathology (Example 5); type: in vivo, New Zealand White rabbits; set-up: average total score of test wounds lower than untreated/control wounds by / Neovascularization (histopathology score, treated mean) / Fibrosis/Collagen (histopathology score, treated mean) / Reepithelialization (histopathology score, treated mean) / Total Score (histopathology, treated mean): scale not given here; details: for Fibrosis/Collagen (histopathology score, treated mean) / Neovascularization (histopathology score, treated mean) / Reepithelialization (histopathology score, treated mean) / Total Score (histopathology, treated mean): 1% intradermal dosing days 15 and 29, Day 42
Procedure: Test compounds were examined in full-thickness dermal wounds in rabbits. Seven male New Zealand White rabbits, ranging in body weight from 3.03 to 3.40 kg were used in this study. Four wounds were placed on the ventral surface of both ears using an 8 mm skin punch biopsy. Axitinib (1.0%), nintedanib (1.0%), lenvatinib (1.0%), sorafenib (1.0%) and sunitinib (1.0%) were administered by intradermal or intralesional injection on days 15 and 29 following surgery. Animals were euthanized on Day 42 and trauma sites were harvested and divided in half. One half was preserved in formalin for histological examination and the other half frozen for TGF beta analysis. Tissue H&E staining was evaluated semi-quantitatively for inflammation and neovascularization. Tissue fibrosis and collagen organization were evaluated by Mason's trichrome staining. Scores for four intradermal sites receiving test articles were averaged for each rabbit. Most scar tissues were composed of neovascularization, fibroblast hyperplasia, collagen disorganization and re-epithelialization.

[3] = test system: testosterone and phenylephrine induced benign prostate hyperplasia; experiment: testosterone and phenylephrine induced benign prostate hyperplasia in rats (Example 3); type: in vivo, Male Wistar rats; details: for epithelial (glandular) hyperplasia score, dorsolateral prostate, representative image: grade 0 (not present) to 5 (severe), FIG. 4
Procedure: This study was conducted to determine the effects of multikinase inhibitors and vehicle on testosterone and phenylephrine induced benign prostate hyperplasia in rats. Male Wistar rats were induced with testosterone (2 mg/kg) plus phenylephrine (5 mg/kg) administered daily by subcutaneous injection on days 5 through 32. Vehicle or test compounds (all 1% w/v), nintedanib, sunitinib or lenvatinib and doxazosin mesylate, were administered by intra-prostate injection (0.4 ml) in dorsolateral and ventral lobes on days 1 and 18. Animals were euthanized on day 32.
At necropsy, the ventral and dorsolateral lobes of the prostate were separated and then cut into halves. The left halves were fixed in 10% neutral buffered formalin, sectioned, and stained with Hematoxylin and Eosin (H&E). Histological changes in these sections were scored. Epithelial hyperplasia was recognized as an increase in epithelial cells within normal-appearing gland profiles, primarily reflected by stratification of epithelial cells and increased presence of epithelial tufting and papillary projections. A severity grade of 0 (not present) through 5 (severe) was assigned to each sample.

[4] = test system: suture induced ocular fibrosis; experiment: suture induced ocular fibrosis model in rabbits (Example 4); type: in vivo
Procedure: A study was conducted to determine the potential beneficial effects of topical administration of test compounds and vehicle in a suture induced ocular fibrosis model in rabbits. Sutures were placed intrastromally, under a microscope, in the cornea of rabbits. In each eye, one 9.0 silk suture was placed, in a vertical position, temporal to the center of the cornea and a second suture was placed nasal to the corneal center. Each suture had two stromal incursions approximately 2 mm from the limbus. Test compounds having a certain spectrum of multikinase inhibition activities or vehicle were topically instilled (35 μL/eye) in the eyes three times daily for 10 days following the day of surgery. The treatment groups include vehicle, axitinib (0.3%), nintedanib (0.3%), pirfenidone (1%), riociguat (0.3%), sorafenib (0.3%) and lenvatinib (0.3%). Six left eyes were used per treatment group.
During the in-life phase, gross ocular observations of very slight to moderate conjunctival congestion and swelling were similar among groups, including the vehicle control. The animals were sacrificed on Day 11 and eyes enucleated and dissected for histopathological evaluation.

[5] = test system: TGF beta mRNA expression; experiment: TGF beta mRNA expression in rabbit dermal wound model (Example 5); type: in vivo, New Zealand White rabbits; details: 1% intradermal days 15 and 29; Day 42; FIG. 10
Procedure: Test compounds were examined in full-thickness dermal wounds in rabbits. Seven male New Zealand White rabbits, ranging in body weight from 3.03 to 3.40 kg were used in this study. Four wounds were placed on the ventral surface of both ears using an 8 mm skin punch biopsy. Axitinib (1.0%), nintedanib (1.0%), lenvatinib (1.0%), sorafenib (1.0%) and sunitinib (1.0%) were administered by intradermal or intralesional injection on days 15 and 29 following surgery. Animals were euthanized on Day 42 and trauma sites were harvested and divided in half. One half was preserved in formalin for histological examination and the other half frozen for TGF beta analysis.
TGF beta mRNA expression in treated trauma samples was compared to expression in untreated samples. In general, TGF beta expression in treated samples was lower relative to untreated trauma samples.

[6] = test system: TGF beta 1 protein levels; experiment: TGF beta 1 protein level (ELISA) in pig linear incision wound model (Example 6); type: in vivo, Gottingen minipigs; details: 16 mg per wound site intradermal; Days 4, 7 and 9; FIG. 11
Procedure: Full-thickness linear incision wounds were created in Gottingen minipigs on Day 1. 10 wounds approximately 3 cm in length and spaced at least 5 cm apart were created on the dorsal surface of the animals, perpendicular to the spine. Test agents included nintedanib (2%), lenvatinib (2%), sorafenib (1%), axitinib (2%) and vehicle control. Test agents were administered by intradermal injection immediately after wound creation. The dose of nintedanib, lenvatinib, sorafenib, or axitinib was 16 mg per wound site. Three minipigs were dosed in a similar manner. One minipig was sacrificed on Day 4, one on Day 7, and one on Day 9.
At the time of sacrifice, two dermal punch biopsies (4 mm) from each side of the wound sites were collected. Two biopsies were flash frozen in liquid nitrogen and stored at −80° C. prior to processing by protein extraction and ELISA (enzyme-linked immunosorbent assay) analysis. TGF beta protein levels were measured on Days 4, 7 and 9.

[7] = TE+PE induced rats, axitinib 1%, sorafenib 1%, pirfenidone 2.5%, severity score 0 (not present) to 5 (severe), induced vehicle group score=2
[8] = TE+PE induced rats, intra-prostate 0.4 ml days 1 and 18, day 32, induced vehicle score=4
[9] = 1% intradermal, rabbit ear wound

| Structure (SMILES) | epithelial hyperplasia score, representative image of dorsolateral prostate [1, 7] | Fibrosis/Collagen (histopathology score, treated mean) ([2]; rabbit ear wound) | Neovascularization (histopathology score, treated mean) ([2]; rabbit ear wound) | Reepithelialization (histopathology score, treated mean) ([2]; rabbit ear wound) | Total Score (histopathology, treated mean) ([2]; rabbit ear wound) | epithelial (glandular) hyperplasia score, dorsolateral prostate, representative image [3, 8] | mean dorsolateral prostate hyperplasia scores compared to vehicle treatment ([1]; riociguat 1%, pirfenidone 2.5%) | also measured |
| --- | --- | --- | --- | --- | --- | --- | --- | --- |
| CNC(=O)c1ccccc1Sc1ccc2c(/C=C/c3ccccn3)n[nH]c2c1 [axitinib] | 1 | 3.3 | 1 | 0.3 | 4.6 | – | – | average total score of test wounds lower than untreated/control wounds by ([2]; 1% intradermal, difference treated vs control): 1.4 |
| COc1cc2nc(N3CCN(C(=O)C4COc5ccccc5O4)CC3)nc(N)c2cc1OC (centres unmarked) [doxazosin, doxazosin mesylate] | – | – | – | – | – | 3 | – | epithelial (glandular) hyperplasia score, ventral prostate, representative image ([3]; TE+PE induced rats, intra-prostate 0.4 ml days 1 and 18, day 32, grade 0 to 5, induced vehicle score=4, FIG. 5): 3 |
| Cc1ccc(=O)n(-c2ccccc2)c1 [pirfenidone] | 1 | – | – | – | – | – | demonstrated a decrease in hyperplasia scores | – |
| COC(=O)N(C)c1c(N)nc(-c2nn(Cc3ccccc3F)c3ncccc23)nc1N [riociguat] | – | – | – | – | – | – | demonstrated a decrease in hyperplasia scores | epithelial hyperplasia score, representative image of dorsolateral prostate ([1]; TE induced rat, riociguat 1%, severity score 0 to 5, TE-induced group 6 score=2): 1; mean prostate weight (prostate weight/100 g body weight) ([1]; TE induced rats, riociguat 1% intra-prostate days 15 and 29, compared to group 6): resulted in a reduction in the mean prostate weight |
| CNC(=O)c1cc(Oc2ccc(NC(=O)Nc3ccc(Cl)c(C(F)(F)F)c3)cc2)ccn1 [sorafenib] | 2 | 2.5 | 3 | 0.3 | 5.8 | – | did not lead to reduction in hyperplasia | mean prostate weight (prostate weight/100 g body weight) ([1]; TE+PE induced rats, 1% test article, intra-prostate 0.2 mL days 15 and 29, compared to vehicle-treated group 1): did not show a reduction in the mean prostate weight; areas of neovascularization on the corneal surface ([4]; 0.3% topical 35 μL/eye three times daily for 10 days, FIG. 8): efficacious in reducing the areas of neovascularization; fibroplasia and/or collagen density (histological staining) ([4]; 0.3% topical three times daily for 10 days, Day 11, FIG. 9): little or no effect on fibroplasia or collagen formation; alpha SMA staining (immunohistochemical analysis) ([4]; 0.3% topical three times daily for 10 days, relative to vehicle, FIG. 9): no effect on alpha SMA relative to vehicle treatment; angiogenesis and fibrosis at treated trauma sites (histopathology summary) [2, 9]: do not show any reduction in angiogenesis and fibrosis; fibrosis compared with control wound sites [2, 9]: similar, or increased fibrosis compared to control sites; neovascularization compared with untreated wounds [2, 9]: slightly increased neovascularization; scar formation overall compared with control sites [2, 9]: does not appear to have reduced scar formation; mean folds of TGF beta mRNA expression vs untreated trauma samples [5]: do not show mean TGF beta expression levels significantly different from the untreated trauma samples; TGF beta 1 protein levels in wound [6]: much less effective |
| CCN(CC)CCNC(=O)c1c(C)[nH]c(/C=C2\C(=O)Nc3ccc(F)cc32)c1C [sunitinib] | – | 3.7 | 4 | 0 | 7.7 | 3 | – | epithelial (glandular) hyperplasia score, ventral prostate, representative image ([3]; 768 h): 3 |

Reference: patent publication US11400089B2, “Multikinase inhibitors and uses in reproductive and digestive tract fibrosis” (AIVIVA BIOPHARMA, INC., priority 2017, dated 2022)
